# How the values were obtained:
# [1] = physchem; settings: 25 °C, organic solvent or mixture
# [2] = physchem; settings: for solubility at 1 h: water, thermodynamic from solid
# Protocol: To 100 mL of the liquid thus obtained, 100 mL of water was added and acetone was distilled off by concentration under reduced pressure to obtain a water dispersion of ultrafine particles of coenzyme Q10.
# (§1) To 100 mL of the liquid thus obtained, 100 mL of water was added and acetone was distilled off by concentration under reduced pressure to obtain a water dispersion of ultrafine particles of busulfan. […] The solubility was measured in the same manner as in Example 1, except that busulfan was used in place of coenzyme Q10.
# as §1, with “ethanol” for “acetone”, “docetaxel.” for “busulfan.”, “docetaxel” for “busulfan”
# as §1, with “ethanol” for “acetone”, “paclitaxel.” for “busulfan.”, “paclitaxel” for “busulfan”
# To 100 mL of the liquid thus obtained, 100 mL of water was added and ethanol was distilled off by concentration under reduced pressure to obtain a water dispersion of ultrafine particles of azadirachtin.
# To 100 mL of the liquid thus obtained, 100 mL of 1-butanol was added and water was distilled off by concentration under reduced pressure to obtain a 1-butanol dispersion of ultrafine particles of ascorbic acid.
# [3] = Solubility in good solvent; settings: for solubility: organic solvent or mixture
compound,measurement,setting,value
C/C=C(\C)C(=O)O[C@H]1C[C@@H](OC(C)=O)[C@@]2(C(=O)OC)CO[C@H]3[C@@H](O)[C@@](C)([C@]45O[C@@]4(C)[C@H]4C[C@@H]5O[C@@H]5OC=C[C@@]54O)[C@H]4[C@]1(CO[C@]4(O)C(=O)OC)[C@@H]32 [azadirachtin],solubility,[1],≥ 30 mg/mL
same,solubility at 1 h,[2]; 20 °C,≤ 0.1 mg/mL
CS(=O)(=O)OCCCCOS(C)(=O)=O [busulfan],solubility,"[3]; acetone, 50 °C",≥ 30 mg/mL
same,solubility at 1 h,[2]; 25 °C,≤ 0.01 mg/mL
COC1=C(OC)C(=O)C(C/C=C(\C)CC/C=C(\C)CC/C=C(\C)CC/C=C(\C)CC/C=C(\C)CC/C=C(\C)CC/C=C(\C)CC/C=C(\C)CC/C=C(\C)CCC=C(C)C)=C(C)C1=O [coenzyme Q10],solubility in acetone,"[3]; acetone, 25° C.",≥ 30 mg/mL
same,solubility in water,[2],≤ 0.01 mg/mL
CC(=O)O[C@@]12CO[C@@H]1C[C@H](O)[C@@]1(C)C(=O)[C@H](O)C3=C(C)[C@@H](OC(=O)[C@H](O)[C@@H](NC(=O)OC(C)(C)C)c4ccccc4)C[C@@](O)([C@@H](OC(=O)c4ccccc4)[C@H]21)C3(C)C [docetaxel],solubility,"[3]; ethanol, 60 °C",≥ 20 mg/mL
same,solubility at 1 h,[2]; 25 °C,≤ 0.01 mg/mL
CC(=O)O[C@H]1C(=O)[C@@]2(C)[C@H]([C@H](OC(=O)c3ccccc3)[C@]3(O)C[C@H](OC(=O)[C@H](O)[C@@H](NC(=O)c4ccccc4)c4ccccc4)C(C)=C1C3(C)C)[C@]1(OC(C)=O)CO[C@@H]1C[C@@H]2O [paclitaxel],solubility,"[3]; ethanol, 25 °C",≥ 30 mg/mL
same,solubility at 1 h,[2]; 25 °C,≤ 0.01 mg/mL
